According to ChEMBL document CHEMBL2007661, “Compounds: GSK PKIS; Assays: UNC Frye lab” (2012):
Values joined by “and” are separate entries in the source; they are usually repeats but may differ in a detail not shown here. Equal entries are not always repeated.

Experiments:
[1] = molecular target: T1, Inhibitor of nuclear factor kappa-B kinase subunit beta (Homo sapiens) (UniProt O14920); settings: at 1 µM
T1 sequence (whole entry): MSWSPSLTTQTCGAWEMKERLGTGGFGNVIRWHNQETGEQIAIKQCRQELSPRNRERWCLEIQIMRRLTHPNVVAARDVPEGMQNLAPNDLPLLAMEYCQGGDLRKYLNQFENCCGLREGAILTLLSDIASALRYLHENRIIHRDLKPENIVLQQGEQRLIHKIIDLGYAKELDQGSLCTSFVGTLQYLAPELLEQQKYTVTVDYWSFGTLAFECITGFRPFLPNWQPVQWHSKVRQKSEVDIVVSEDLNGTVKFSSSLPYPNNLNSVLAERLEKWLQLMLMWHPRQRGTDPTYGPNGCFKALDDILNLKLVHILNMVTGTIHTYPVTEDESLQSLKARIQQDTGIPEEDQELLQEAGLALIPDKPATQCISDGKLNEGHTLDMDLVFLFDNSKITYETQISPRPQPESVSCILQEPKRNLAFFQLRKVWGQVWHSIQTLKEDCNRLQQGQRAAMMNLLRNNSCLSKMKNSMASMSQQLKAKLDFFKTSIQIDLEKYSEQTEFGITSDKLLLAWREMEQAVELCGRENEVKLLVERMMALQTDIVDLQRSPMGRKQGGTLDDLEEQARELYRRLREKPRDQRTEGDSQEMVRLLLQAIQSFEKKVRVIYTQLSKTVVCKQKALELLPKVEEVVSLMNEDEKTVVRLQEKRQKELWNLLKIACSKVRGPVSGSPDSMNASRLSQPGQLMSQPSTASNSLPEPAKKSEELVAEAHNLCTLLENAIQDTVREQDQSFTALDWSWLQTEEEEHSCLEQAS

[2] = molecular target: T2, Serine/threonine-protein kinase TBK1 (Homo sapiens) (UniProt Q9UHD2); settings: at 1 µM
T2 sequence (whole entry): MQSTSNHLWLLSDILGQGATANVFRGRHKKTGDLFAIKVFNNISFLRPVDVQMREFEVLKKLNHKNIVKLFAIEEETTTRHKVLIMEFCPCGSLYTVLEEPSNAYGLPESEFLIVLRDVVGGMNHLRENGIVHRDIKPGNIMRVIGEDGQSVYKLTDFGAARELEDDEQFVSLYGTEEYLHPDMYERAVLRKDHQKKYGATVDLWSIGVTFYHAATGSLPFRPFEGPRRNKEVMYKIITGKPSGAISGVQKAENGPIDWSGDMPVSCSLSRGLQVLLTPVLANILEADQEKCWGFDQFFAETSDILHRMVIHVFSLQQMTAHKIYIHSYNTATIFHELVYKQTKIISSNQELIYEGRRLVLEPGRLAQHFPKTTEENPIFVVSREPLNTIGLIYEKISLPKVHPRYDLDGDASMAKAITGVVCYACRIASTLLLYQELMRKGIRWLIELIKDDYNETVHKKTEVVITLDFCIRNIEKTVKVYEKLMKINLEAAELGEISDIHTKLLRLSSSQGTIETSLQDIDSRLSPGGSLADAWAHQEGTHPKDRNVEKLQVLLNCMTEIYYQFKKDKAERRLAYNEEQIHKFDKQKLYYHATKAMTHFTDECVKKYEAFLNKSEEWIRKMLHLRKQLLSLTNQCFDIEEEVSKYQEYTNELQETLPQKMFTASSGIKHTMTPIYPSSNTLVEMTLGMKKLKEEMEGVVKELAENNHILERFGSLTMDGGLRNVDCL

Row | Compound | inhibition [1] | inhibition [2]
1 | CCCNc1cccc(-n2ncc3c(N/N=C/c4ccncc4)ncnc32)c1 | -3% and -2% | 18%
2 | Cc1ccc(C(=O)NC2CC2)cc1-c1ccc2[nH]ncc2c1 | 0% | 0% and 2%
3 | CN(C)c1cc2c(Nc3ccc4nc(Cc5ccccc5)[nH]c4c3)ncnc2cn1 | -2% and -3% | 2% and 6%
4 | Cc1ccc2c(-c3ccnc(Nc4ccc5c(c4)OCCO5)n3)c(-c3ccc(C(F)(F)F)cc3)nn2n1 | -1% and -5% | -5% and 1%
5 | Cc1ccc(Nc2ccnc(Nc3cccc(C(N)=O)c3)n2)cc1O | -3% and -2% | 27%
6 | O=C1Nc2ccc(I)cc2C1=Cc1cc(Br)c(O)c(Br)c1 | 0% | 3%
7 | CCN(CC)S(=O)(=O)c1ccc(OC)c(Nc2ncc(-c3ccccc3)o2)c1 | -1% and 2% | -2% and 2%
8 | O=C1Nc2ccccc2/C1=C/Nc1ccc(-n2cncn2)cc1 | -5% and -4% | 23% and 27%
9 | COc1cc2ncn(-c3cc(O[C@H](C)c4ccccc4Cl)c(C(N)=O)s3)c2cc1OC | 0% and -8% | 2% and 0%
10 | CCS(=O)(=O)c1ccc(OC)c(Nc2ncc(-c3ccccc3Cl)o2)c1 | -7% and -4% | 2% and 6%
11 | COc1ccccc1Nc1ncc(-c2ccccc2)o1 | 3% and 0% | 10% and 5%
12 | Cc1nnc(-c2ccc(C)c(-c3ccc(C(=O)NCc4ccc(Cl)cc4)cc3)c2)o1 | -2% and 0% | 3% and 4%
13 | Fc1ccc(-c2c(-c3ccncc3)nc3n2CCS3)cc1 | 0% and -2% | 2% and 3%
14 | O=C1NC(=O)C(c2ccccc2Cl)=C1Nc1cccc(O)c1 | -6% and -2% | 9% and 7%
15 | COc1cccc(COc2cc(-n3cnc4ccccc43)sc2C(N)=O)c1 | -5% and -4% | 2% and 0%
16 | N#Cc1ccc(Oc2nccc(-c3c(-c4ccc(F)cc4)ncn3C3CCNCC3)n2)cc1 | -2% and -1% | 8% and 3%
17 | CCOc1ccc2c(-c3ccnc(Nc4cccc(C(F)(F)F)c4)n3)cnn2n1 | -3% and -6% | 55% and 52%
18 | COc1cc2ncn(-c3cc(OCCc4ccccc4)c(C(N)=O)s3)c2cc1OC | 8% and 3% | 65% and 61%
19 | FC(F)(F)c1cccc(-c2nn3ncccc3c2-c2ccnc(Nc3ccc4c(c3)OCCO4)n2)c1 | -3% and -2% | 3% and 1%
20 | CCn1c(-c2nonc2N)nc2cncc(C(=O)NCCNC)c21 | 1% and -2% | 17% and 13%
21 | NC(=O)c1cccc(Nc2nccc(Nc3cccc4[nH]ncc34)n2)c1 | -2% and 2% | 45% and 44%

Row | Compound | inhibition [1] | inhibition [2]
22 | O=C(O[C@H]1CN[C@H](C#Cc2cc3ncnc(Nc4ccc5c(ccn5Cc5cc(F)ccc5F)c4)c3s2)C1)N1CCOCC1 | 1% and 0% | 11% and 9%
23 | N#Cc1c(NC(=O)CN2CCOCC2)sc2c1CCCC2 | -1% and -3% | -6%
24 | CCN(CC)Cc1ccc(Nc2nccc(-c3cnn4ncccc34)n2)cc1 | -9% and -7% | 10% and 14%
25 | COc1ccc(-c2nn3ncccc3c2-c2ccnc(Nc3ccc(Cl)c(C(F)(F)F)c3)n2)cc1 | -4% and -5% | -6% and -3%
26 | COc1cc(N2CCN(C(C)C)CC2)ccc1Nc1nc(Nc2cccc(F)c2C(=O)O)c2cc[nH]c2n1 | -4% and -3% | -3% and 0%
27 | Cc1ccc(NC(=O)c2ccoc2)cc1-c1ccc(C(=O)NCC2CC2)cc1 | -5% | 1% and 2%
28 | CC(=O)Nc1cccc(C#Cc2cncnc2Nc2ccc(OCc3cccc(F)c3)c(Cl)c2)c1 | -2% and 0% | -6% and -7%
29 | COc1ccc(-c2cc3c(N)ncnc3o2)cc1 | -5% and 1% | 1% and 2%
30 | CCS(=O)(=O)c1ccc(OC)c(Nc2ncc(-c3cccc(OC)c3)o2)c1 | 3% and 0% | 11% and 8%
31 | CC1=C(C(=O)Nc2cc(Cl)c3[nH]ncc3c2)C(c2ccc(C(F)(F)F)cc2)CC(=O)N1 (centres undefined) | -7% and 0% | -2% and 0%
32 | CCn1c(-c2nonc2N)nc2c(C#CC(C)(C)O)nc(O[C@@H](CN)c3ccccc3)cc21 | -3% and -4% | 85% and 87%
33 | CS(=O)(=O)CCNCc1coc(-c2ccc3ncnc(Nc4ccc(OCc5ccccc5)cc4)c3c2)c1 | 0% and -1% | -1%
34 | CC(=O)NCc1cccc(C#Cc2cncnc2Nc2ccc(OCc3cccc(F)c3)c(Cl)c2)c1 | -3% and -4% | -6% and -7%
35 | CN(C)CCOc1ccc(-c2nc(-c3ccncc3)c(-c3ccc4c(c3)CC/C4=N\O)[nH]2)cc1 | 0% and -1% | -3% and -1%
36 | CCn1c(-c2nonc2N)nc2c(C#CC(C)(C)O)nc(CN3CCCC3)cc21 | -3% and 3% | 24% and 20%
37 | Cc1cc(-c2ccccn2)cc(C)c1/C=C/c1cncc(-c2nn[nH]n2)c1 | -5% and -2% | -2% and -5%
38 | O=C1Nc2ccc(C(=O)c3ccco3)cc2C1=Cc1cc(Cl)c(O)c(Cl)c1 | -8% and -7% | 86% and 87%
39 | CCn1c(-c2nonc2N)nc2c(C#CC(C)(C)O)nc(OC[C@H](N)c3ccccc3)cc21 | -4% and 1% | 8% and 11%
40 | N#Cc1ccc2c(-c3ccnc(NC4CC4)n3)c(-c3ccc(F)cc3)nn2c1 | 4% and -1% | -1%
41 | CS(=O)(=O)Nc1ccc(-c2ccc3c(NC(=O)C4CC4)n[nH]c3c2)cc1 | -3% and 2% | 3% and 5%
42 | Cc1ccc(NC(=O)c2ccnc(N3CCCC3)c2)cc1-c1ccc(C(=O)NCC2CC2)cc1 | 2% | 33% and 39%

Row | Compound | inhibition [1] | inhibition [2]
43 | ON=C1CCc2cc(-c3nc(C4CCNCC4)[nH]c3-c3ccncc3)ccc21 | 6% and 3% | 1%
44 | CS(=O)(=O)CCNCc1nc(-c2ccc3ncnc(Nc4ccc(F)c(Cl)c4)c3c2)cs1 | -2% and -3% | 1% and -2%
45 | NS(=O)(=O)c1ccc(N/N=C2\C(=O)Nc3ccc(-c4cnco4)cc32)cc1 | -2% | 61% and 57%
46 | CNC(=O)c1cncc(/C=C/c2c(C)cccc2C)c1 | 1% and -2% | 3% and -1%
47 | O=C(Nc1n[nH]c2nc(-c3ccc(O)cc3)c(Br)cc12)C1CC1 | -4% and -2% | 37% and 33%
48 | COc1cccc(-n2ncc3c(N/N=C/c4ccc(C(=O)NCCN(C)C)cc4)ncnc32)c1 | -5% and -6% | 28% and 31%
49 | COc1ccc2c(-c3ccnc(Nc4cccc(OC(F)(F)F)c4)n3)cnn2n1 | -3% and -2% | 49%
50 | COc1cccc(-n2ncc3c(N/N=C/c4ccncc4)ncnc32)c1 | -2% | 13% and 14%
51 | Nc1ccc(C#Cc2cncnc2Nc2ccc(OCc3cccc(F)c3)c(Cl)c2)cc1 | 7% and -3% | 1% and 2%
52 | CN(C)c1cc2c(Nc3ccc4c(cnn4Cc4ccccc4)c3)ncnc2cn1 | -3% and -2% | 2% and -3%
53 | c1ccc(-c2n[nH]cc2-c2ccnc(-c3ccc(OCCN4CCOCC4)cc3)c2)nc1 | -4% and -10% | -2% and -1%
54 | CCOc1nccc2c1nc(-c1nonc1N)n2CC | -2% and -3% | -2% and 0%
55 | Fc1ccc(-c2cc(-c3c[nH]nc3-c3ccccn3)ccn2)cc1 | -4% and -2% | -4% and -3%
56 | CCCN1CCCC(c2ccc(Nc3nc(Nc4cc(F)ccc4C(N)=O)c4cc[nH]c4n3)c(OC)c2)C1 (centres undefined) | -1% and 1% | 9% and 11%
57 | NC(=O)c1ccc2c(-c3ccnc(NCCCO)n3)c(-c3ccc(F)cc3)nn2c1 | -2% and -1% | 3% and 1%
58 | O=C1NC(=O)C(c2cccc(Cl)c2)=C1Nc1ccc(O)c(Cl)c1 | -6% and -9% | 58% and 55%
59 | N#Cc1c(NC(=O)c2ccccc2F)sc2c1CCCC2 | 1% and 0% | 0% and 2%
60 | NS(=O)(=O)c1cccc(-c2cc3ccncc3cc2OCc2ccccc2)c1 | -4% and 2% | -7% and -1%
61 | CN(C)c1ccc2c(c1)/C(=C/Nc1ccc(S(N)(=O)=O)cc1)C(=O)N2 | -3% | 76% and 74%
62 | C[C@@H](Oc1cc(-n2cnc3ccc(OC[C@@H](O)CO)cc32)sc1C(N)=O)c1ccccc1Cl | 1% and 4% | 4% and 1%
